Data as given in ChEMBL document CHEMBL1909046, “DrugMatrix in vitro pharmacology data”.

Columns and labels:
[1] = biological target: Protein kinase C alpha type (Homo sapiens, UniProt P17252); format: cell-based; conditions: sf9;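 also: inhibition of PKCalpha kinase activity measured in an enzyme assay with histone as the phosphorylation substrate; in other assays of this panel Not Active means under 50% inhibition at 10 µM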
[2] = biological target: Tyrosine-protein kinase Fyn (Homo sapiens, UniProt P06241); experiment: biochemical; format: cell-based, Insect cells;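 also: enzymatic inhibition of Fyn kinase activity measured with Poly(Glu:Tyr) as the phosphorylation substrate; in other assays of this panel Not Active means under 50% inhibition at 10 µM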
Tyrosine-protein kinase Fyn, sequence (P06241 whole entry): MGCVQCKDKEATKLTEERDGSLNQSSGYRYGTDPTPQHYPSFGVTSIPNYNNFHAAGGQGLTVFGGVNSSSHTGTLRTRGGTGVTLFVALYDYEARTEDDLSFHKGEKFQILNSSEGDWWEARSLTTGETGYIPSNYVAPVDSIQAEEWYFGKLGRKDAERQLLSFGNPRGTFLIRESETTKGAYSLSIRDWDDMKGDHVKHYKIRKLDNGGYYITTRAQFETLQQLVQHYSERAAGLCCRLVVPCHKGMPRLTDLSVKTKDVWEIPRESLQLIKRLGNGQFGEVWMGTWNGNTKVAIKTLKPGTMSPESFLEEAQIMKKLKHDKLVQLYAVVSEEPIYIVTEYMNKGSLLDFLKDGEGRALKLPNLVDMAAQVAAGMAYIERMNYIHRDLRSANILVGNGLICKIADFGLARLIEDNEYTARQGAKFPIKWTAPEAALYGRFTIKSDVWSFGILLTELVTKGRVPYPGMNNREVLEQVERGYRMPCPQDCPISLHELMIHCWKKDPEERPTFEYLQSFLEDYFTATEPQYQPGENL

D(4) dopamine receptor = biological target: T1, D(4) dopamine receptor (Homo sapiens, UniProt P21917); experiment: DRUGMATRIX: Dopamine D4.2 radioligand binding (ligand: [3H] Spiperone); format: cell membranes, CHO-K1, Membrane; conditions: Not Active = under 50% inhibition at 10 µM
T1 sequence (P21917 whole entry): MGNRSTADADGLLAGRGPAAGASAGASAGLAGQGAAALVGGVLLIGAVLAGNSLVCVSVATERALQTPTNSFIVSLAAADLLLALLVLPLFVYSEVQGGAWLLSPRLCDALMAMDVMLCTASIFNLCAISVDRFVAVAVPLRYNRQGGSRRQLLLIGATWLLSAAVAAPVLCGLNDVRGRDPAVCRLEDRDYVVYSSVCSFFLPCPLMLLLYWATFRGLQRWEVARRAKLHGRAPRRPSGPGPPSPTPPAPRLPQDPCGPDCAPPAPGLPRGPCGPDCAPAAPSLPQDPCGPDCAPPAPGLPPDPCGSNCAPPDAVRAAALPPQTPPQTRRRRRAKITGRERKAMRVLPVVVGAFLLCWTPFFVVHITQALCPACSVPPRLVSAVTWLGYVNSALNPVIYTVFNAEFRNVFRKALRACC

[3] = biological target: Sodium-dependent noradrenaline transporter (Homo sapiens, UniProt P23975); experiment: DRUGMATRIX: Norepinephrine Transporter radioligand binding (ligand: [125I] RTI-55); format: cell membranes, MDCK, Membrane; conditions: Not Active = under 50% inhibition at 10 µM
Sodium-dependent noradrenaline transporter, sequence (P23975 whole entry): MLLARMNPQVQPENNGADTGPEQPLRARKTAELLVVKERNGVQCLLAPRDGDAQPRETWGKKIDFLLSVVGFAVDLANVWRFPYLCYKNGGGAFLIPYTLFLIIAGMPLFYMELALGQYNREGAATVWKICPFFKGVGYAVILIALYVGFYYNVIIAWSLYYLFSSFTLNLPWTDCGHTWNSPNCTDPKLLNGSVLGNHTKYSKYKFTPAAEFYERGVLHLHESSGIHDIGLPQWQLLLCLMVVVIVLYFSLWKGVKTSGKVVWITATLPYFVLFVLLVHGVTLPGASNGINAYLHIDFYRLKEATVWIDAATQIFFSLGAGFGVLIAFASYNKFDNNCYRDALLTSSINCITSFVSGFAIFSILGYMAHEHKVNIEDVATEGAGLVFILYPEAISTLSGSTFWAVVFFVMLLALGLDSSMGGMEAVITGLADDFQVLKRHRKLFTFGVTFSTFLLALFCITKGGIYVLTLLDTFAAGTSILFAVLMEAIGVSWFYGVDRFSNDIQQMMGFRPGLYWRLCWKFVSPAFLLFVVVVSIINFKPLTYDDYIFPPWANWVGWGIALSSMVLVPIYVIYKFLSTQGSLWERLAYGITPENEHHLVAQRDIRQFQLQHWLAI

[4] = biological target: Sodium-dependent dopamine transporter (Homo sapiens, UniProt Q01959); experiment: DRUGMATRIX: Dopamine Transporter radioligand binding (ligand: [125I] RTI-55); format: cell membranes, CHO-K1, Membrane; conditions: cho-k1; Not Active = under 50% inhibition at 10 µM
Sodium-dependent dopamine transporter, sequence (Q01959 whole entry): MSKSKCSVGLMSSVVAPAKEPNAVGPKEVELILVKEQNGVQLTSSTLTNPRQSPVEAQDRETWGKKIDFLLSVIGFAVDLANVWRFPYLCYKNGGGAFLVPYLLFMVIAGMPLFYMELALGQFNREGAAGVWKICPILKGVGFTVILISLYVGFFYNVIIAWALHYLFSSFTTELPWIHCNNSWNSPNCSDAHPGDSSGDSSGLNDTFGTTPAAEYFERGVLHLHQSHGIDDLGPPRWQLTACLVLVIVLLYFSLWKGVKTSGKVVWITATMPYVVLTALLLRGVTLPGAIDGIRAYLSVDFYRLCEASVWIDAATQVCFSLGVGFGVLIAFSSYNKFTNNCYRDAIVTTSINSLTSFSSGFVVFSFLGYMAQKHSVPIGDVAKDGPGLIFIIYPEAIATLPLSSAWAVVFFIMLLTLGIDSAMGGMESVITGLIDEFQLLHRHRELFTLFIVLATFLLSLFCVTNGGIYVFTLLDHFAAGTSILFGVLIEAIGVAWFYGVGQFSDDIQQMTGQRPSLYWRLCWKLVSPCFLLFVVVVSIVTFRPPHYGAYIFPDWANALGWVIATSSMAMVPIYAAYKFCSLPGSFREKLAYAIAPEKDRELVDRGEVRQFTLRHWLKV

[5] = biological target: cGMP-specific 3',5'-cyclic phosphodiesterase (Homo sapiens, UniProt O76074); experiment: DRUGMATRIX: Phosphodiesterase PDE5 enzyme inhibition (substrate: [3H]cGMP + cGMP); format: tissue-based; conditions: platelet; Not Active = under 50% inhibition at 10 µM

Compound | IC50 [1] | IC50 ([2]; insect cells) | IC50 (D(4) dopamine receptor; cho-k1) | IC50 ([3]; mdck) | IC50 [4] | IC50 [5] | also measured
CCOC(N)=O | Not Active | Not Active | Not Active | Not Active | Not Active | Not Active | –
COc1ccc(CN2CCNCC2)c(OC)c1OC [TRIMETAZIDINE] | Not Active | Not Active | Not Active | Not Active | Not Active | Not Active | –
CC(=O)O[C@H]1C[C@@H]2CC[C@@H]3[C@H](CC[C@@]4(C)[C@H]3C[C@H]([N+]3(C)CCCCC3)[C@@H]4OC(C)=O)[C@@]2(C)C[C@@H]1N1CCCCC1.[Br-] [VECURONIUM BROMIDE] | Not Active | Not Active | Not Active | Not Active | Not Active | Not Active | –
C[C@@H]1C[C@H]2[C@@H]3CCC4=CC(=O)C=C[C@]4(C)C3=CC[C@]2(C)[C@H]1C(=O)CN1CCN(c2cc(N3CCCC3)nc(N3CCCC3)n2)CC1 [TIRILAZAD] | Not Active | – | Not Active | Not Active | Not Active | Not Active | IC50 ([2]; read-out: IC50): 1.12 µM
CC(C)OC(=O)C(C)(C)Oc1ccc(C(=O)c2ccc(Cl)cc2)cc1 [FENOFIBRATE] | Not Active | Not Active | Not Active | – | – | Not Active | –
C[C@@H](O)[C@H]1C(=O)N2C(C(=O)O)=C(S[C@@H]3CN[C@H](C(=O)N(C)C)C3)[C@H](C)[C@H]12 [MEROPENEM] | Not Active | Not Active | Not Active | Not Active | Not Active | Not Active | –
CC[C@@H](CO)NC(=O)[C@@H]1C=C2c3cccc4c3c(cn4C)C[C@H]2N(C)C1 [METHYSERGIDE] | Not Active | Not Active | Not Active | Not Active | Not Active | Not Active | –
CC(C)(C)NC[C@H](O)COc1nsnc1N1CCOCC1 [TIMOLOL] | Not Active | Not Active | Not Active | Not Active | Not Active | Not Active | –
CCN(CC)CC#CCOC(=O)C(O)(c1ccccc1)C1CCCCC1 (configuration not stated) [OXYBUTYNIN] | Not Active | Not Active | Not Active | – | – | Not Active | –
O=c1[nH]c2ccccc2n1CCCN1CCC(n2c(=O)[nH]c3cc(Cl)ccc32)CC1 [DOMPERIDONE] | Not Active | Not Active | Not Active | – | Not Active | Not Active | –
CC1=C(CC(=O)O)c2cc(F)ccc2/C1=C\c1ccc(S(C)(=O)=O)cc1 [EXISULIND] | Not Active | Not Active | Not Active | Not Active | Not Active | Not Active | –
COc1ncnc(NS(=O)(=O)c2ccc(N)cc2)c1OC [SULFADOXINE] | Not Active | Not Active | Not Active | Not Active | Not Active | Not Active | –
CC(=O)Nc1nnc(S(N)(=O)=O)s1 [ACETAZOLAMIDE] | Not Active | Not Active | Not Active | Not Active | Not Active | Not Active | –
CO[C@H]1C[C@@H]2CC[C@@H](C)[C@@](O)(O2)C(=O)C(=O)N2CCCC[C@H]2C(=O)O[C@H]([C@H](C)C[C@@H]2CC[C@@H](O)[C@H](OC)C2)CC(=O)[C@H](C)/C=C(\C)[C@@H](O)[C@@H](OC)C(=O)[C@H](C)C[C@H](C)/C=C/C=C/C=C/1C [SIROLIMUS] | Not Active | Not Active | Not Active | Not Active | Not Active | Not Active | –
OCCN1CCN(CCCN2c3ccccc3Sc3ccc(C(F)(F)F)cc32)CC1 [FLUPHENAZINE] | Not Active | – | – | – | – | Not Active | IC50 ([2]; read-out: IC50): 7.99 µM; IC50 (D(4) dopamine receptor; read-out: IC50): 5.88 µM; Ki (D(4) dopamine receptor; read-out: Ki): 2.06 µM; IC50 ([3]; read-out: IC50): 1.96 µM; Ki ([3]; read-out: Ki): 1.95 µM
Cc1cn([C@H]2C[C@H](N=[N+]=[N-])[C@@H](CO)O2)c(=O)[nH]c1=O [ZIDOVUDINE] | Not Active | Not Active | Not Active | Not Active | Not Active | Not Active | –
THIMEROSAL | Not Active | Not Active | Not Active | – | Not Active | Not Active | Ki [1]: Not Active; Ki ([2]; insect cells): Not Active; Ki (D(4) dopamine receptor; cho-k1): Not Active; IC50 ([3]; mdck, read-out: IC50): 0.931 µM; Ki ([3]; mdck, read-out: Ki): 0.923 µM; Ki [4]: Not Active; Ki [5]: Not Active

Compound | IC50 [1] | IC50 ([2]; insect cells) | IC50 (D(4) dopamine receptor; cho-k1) | IC50 ([3]; mdck) | IC50 [4] | IC50 [5] | also measured
NC[C@H]1O[C@H](O[C@H]2[C@H](O)[C@@H](O[C@H]3O[C@H](CO)[C@@H](O)[C@H](N)[C@H]3O)[C@H](N)C[C@@H]2N)[C@H](N)C[C@@H]1O [TOBRAMYCIN] | Not Active | Not Active | Not Active | Not Active | Not Active | Not Active | –
O=P(O)(O)C(O)(Cc1cccnc1)P(=O)(O)O [RISEDRONIC ACID] | Not Active | Not Active | Not Active | Not Active | Not Active | Not Active | –
Nc1ccc(S(=O)(=O)Nc2nccs2)cc1 [SULFATHIAZOLE] | Not Active | Not Active | Not Active | Not Active | Not Active | Not Active | –
Nc1ccc(S(=O)(=O)Nc2ncccn2)cc1 [SULFADIAZINE] | Not Active | Not Active | Not Active | Not Active | Not Active | Not Active | –
CN[C@@H]1[C@H](O)[C@H](NC)[C@H]2O[C@@]3(O)C(=O)C[C@@H](C)O[C@H]3O[C@@H]2[C@H]1O [SPECTINOMYCIN] | Not Active | Not Active | Not Active | Not Active | Not Active | Not Active | –
COc1cc(N)nc2[nH]c(-c3ccc(F)cc3)c(-c3ccncc3)c12 | Not Active | Not Active | Not Active | – | Not Active | Not Active | IC50 ([3]; read-out: IC50): 1.07 µM; Ki ([3]; read-out: Ki): 1.06 µM
CN(CCOc1ccc(CC2SC(=O)NC2=O)cc1)c1ccccn1 (configuration not stated) [ROSIGLITAZONE] | Not Active | Not Active | Not Active | Not Active | Not Active | Not Active | –
C=C(C)[C@H]1Cc2c(ccc3c2O[C@@H]2COc4cc(OC)c(OC)cc4[C@@H]2C3=O)O1 [ROTENONE] | Not Active | Not Active | Not Active | Not Active | Not Active | Not Active | –
O=c1n(CCCN2CCN(c3cccc(Cl)c3)CC2)nc2ccccn12 [TRAZODONE] | Not Active | Not Active | Not Active | Not Active | Not Active | Not Active | –
O=C(O)C(Cl)(Cl)Cl [TRICHLOROACETIC ACID] | Not Active | Not Active | Not Active | Not Active | Not Active | Not Active | –
CNS(=O)(=O)Cc1ccc2[nH]cc(CCN(C)C)c2c1 | Not Active | Not Active | Not Active | Not Active | Not Active | Not Active | –
CCCc1nn(C)c2c(=O)[nH]c(-c3cc(S(=O)(=O)N4CCN(C)CC4)ccc3OCC)nc12 | Not Active | Not Active | Not Active | Not Active | Not Active | – | –
Nc1nc2c(c(=O)[nH]1)N(C=O)C(CNc1ccc(C(=O)N[C@@H](CCC(=O)O)C(=O)O)cc1)CN2 (some centres not stated) [LEUCOVORIN] | Not Active | Not Active | Not Active | Not Active | Not Active | Not Active | –
CCS(=O)(=O)CCn1c([N+](=O)[O-])cnc1C [TINIDAZOLE] | Not Active | Not Active | Not Active | Not Active | Not Active | Not Active | –
C#CCN(C)[C@H](C)Cc1ccccc1 [SELEGILINE] | Not Active | Not Active | Not Active | Not Active | Not Active | Not Active | –
COc1cc(C(=O)NS(=O)(=O)c2ccccc2C)ccc1Cc1cn(C)c2ccc(NC(=O)OC3CCCC3)cc12 [ZAFIRLUKAST] | Not Active | Not Active | Not Active | Not Active | Not Active | Not Active | –
STANNOUS FLUORIDE | Not Active | Not Active | Not Active | Not Active | Not Active | Not Active | Ki [1]: Not Active; Ki ([2]; insect cells): Not Active; Ki (D(4) dopamine receptor; cho-k1): Not Active; Ki ([3]; mdck): Not Active; Ki [4]: Not Active; Ki [5]: Not Active
